Test results reported in US11459323B2, “Monocyclic β-lactam compound for treating bacterial infection” (MEDSHINE DISCOVERY INC., priority 2018, dated 2022).
Values after ≈ are worked out from the molar mass of the structure shown. Where two headings read alike, the source gives them in different places. Marks after values point to notes of the source that are not given here.

Legend:
[1] = test system: K. pneumoniae ATCC BAA-205 (TEM-1/SHV-1/SHV-12); test: MIC by micro-liquid dilution method (CLSI); assay type: cell-based, Klebsiella pneumonia; settings: Klebsiella pneumoniae, ATCCBAA205; K. pneumoniae ATCCBAA-205; read-out: MIC
[2] = test system: K. pneumoniae ATCC BAA-1705 (KPC-2); test: MIC by micro-liquid dilution method (CLSI); assay type: cell-based, Klebsiella pneumonia; settings: Klebsiella pneumoniae, ATCCBAA1705; K. pneumoniae ATCCBAA-1705; read-out: MIC
[3] = test system: K. pneumoniae ATCC BAA-2470 (NDM-1); test: MIC by micro-liquid dilution method (CLSI); assay type: cell-based, Klebsiella pneumonia; settings: Klebsiella pneumoniae, ATCCBAA2470; K. pneumoniae ATCCBAA-2470; read-out: MIC
[4] = test system: E. coli ATCC BAA-2523 (OXA-48); test: MIC by micro-liquid dilution method (CLSI); assay type: cell-based; settings: Escherichia coli, ATCCBAA2523; E. coli ATCCBAA-2523; read-out: MIC
Excerpt: (§1) Three strains of Klebsiella pneumonia, K. pneumoniae ATCC BAA-205 (TEM-1/SHV-1/SHV-12), K. pneumoniae ATCC BAA-1705 (KPC-2), K. pneumoniae ATCC BAA-2470 (NDM-1); three strains of Pseudomonas aeruginosa, P. aeruginosa NCTC13437 (VIM-10; VEB-1), P. aeruginosa PA 14 and P. aeruginosa ATCC 35151; four strains of Escherichia coli, E. coli NCTC 13476 (IMP-1 type), E. coli ATCC BAA-2523 (OXA-48), E. coli MG1655Δtol C, E. coli ATCC 25922; one strain of Acinetobacter baumannii, A. baumannii ATCC 17978 and one strain of Staphylococcus aureus, S. aureus NRS384 were used to determine the minimum inhibitory concentration (MIC) of the compounds by micro-liquid dilution method according to the Institute of Clinical and Laboratory Standard (CLSI) requirements.

E. coli MG1655Δtol C = test: MIC by micro-liquid dilution method (CLSI); assay type: cell-based; settings: Escherichia coli
Excerpt: as §1

[5] = test system: E. coli NCTC 13476 (IMP-1 type); test: MIC by micro-liquid dilution method (CLSI); assay type: cell-based; settings: Escherichia coli; E. coli NCTC13476; read-out: MIC
Excerpt: as §1

P. aeruginosa PA 14 = test: MIC by micro-liquid dilution method (CLSI); assay type: cell-based; settings: Pseudomonas aeruginosa, PA14; P. aeruginosa PA 14; read-out: MIC
Excerpt: as §1

P. aeruginosa ATCC 35151 = test: MIC by micro-liquid dilution method (CLSI); assay type: cell-based; settings: Pseudomonas aeruginosa; P. aeruginosa ATCC35151; read-out: MIC
A. baumannii ATCC 17978 = test: MIC by micro-liquid dilution method (CLSI); assay type: cell-based; settings: Acinetobacter baumannii; A. baumannii ATCC17978; read-out: MIC
E. coli ATCC 25922 = test: MIC by micro-liquid dilution method (CLSI); assay type: cell-based; settings: Escherichia coli; E. coli ATCC25922; read-out: MIC
[6] = test system: Acinetobacter baumannii ATCC 17978; test: MIC on Acinetobacter baumannii strains; assay type: cell-based; settings: ATCC17978
Excerpt: (§2) Twelve strains of Acinetobacter baumannii, A. baumannii ATCC 17978 (ATCC-BAA-1605, ATCC-BAA-1789, ATCC-BAA-1790, ATCC-BAA-1791, ATCC-BAA-1792, ATCC-BAA-1793, ATCC-BAA-1794, ATCC-BAA-1795, ATCC-BAA-1799, ATCC-BAA-1800, ATCC 19606, ATCC 17978) were used to determine the minimum inhibitory concentration (MIC) of the compounds by micro-liquid dilution method according to the Institute of Clinical and Laboratory Standard (CLSI) requirements.

[7] = test system: Acinetobacter baumannii ATCC 19606; test: MIC on Acinetobacter baumannii strains; assay type: cell-based; settings: ATCC19606
Excerpt: as §2

[8] = test system: Acinetobacter baumannii ATCC-BAA-1605; test: MIC on Acinetobacter baumannii strains; assay type: cell-based; settings: ATCCBAA1605, ATCC-BAA-1605, read-out: MIC
Excerpt: as §2

[9] = test system: Acinetobacter baumannii ATCC-BAA-1789; test: MIC on Acinetobacter baumannii strains; assay type: cell-based; settings: ATCCBAA1789
Excerpt: as §2

[10] = test system: Acinetobacter baumannii ATCC-BAA-1790; test: MIC on Acinetobacter baumannii strains; assay type: cell-based; settings: ATCCBAA1790, ATCC-BAA-1790, read-out: MIC
Excerpt: as §2

[11] = test system: Acinetobacter baumannii ATCC-BAA-1791; test: MIC on Acinetobacter baumannii strains; assay type: cell-based; settings: ATCCBAA1791
Excerpt: as §2

[12] = test system: Acinetobacter baumannii ATCC-BAA-1792; test: MIC on Acinetobacter baumannii strains; assay type: cell-based; settings: ATCCBAA1792, ATCC-BAA-1792, read-out: MIC
Excerpt: as §2

[13] = test system: Acinetobacter baumannii ATCC-BAA-1793; test: MIC on Acinetobacter baumannii strains; assay type: cell-based
Excerpt: as §2

[14] = test system: Acinetobacter baumannii ATCC-BAA-1794; test: MIC on Acinetobacter baumannii strains; assay type: cell-based; settings: ATCCBAA1794, ATCC-BAA-1794, read-out: MIC
Excerpt: as §2

[15] = test system: Acinetobacter baumannii ATCC-BAA-1795; test: MIC on Acinetobacter baumannii strains; assay type: cell-based; settings: ATCCBAA1795
Excerpt: as §2

[16] = test system: Acinetobacter baumannii ATCC-BAA-1799; test: MIC on Acinetobacter baumannii strains; assay type: cell-based; settings: ATCCBAA1799, ATCC-BAA-1799, read-out: MIC
Excerpt: as §2

[17] = test system: Acinetobacter baumannii ATCC-BAA-1800; test: MIC on Acinetobacter baumannii strains; assay type: cell-based
Excerpt: as §2

[18] = test system: Pseudomonas aeruginosa PA14; test: Lungs of immunosuppressed mice infected with Pseudomonas aeruginosa (1), lung bacterial load; assay type: in vivo; settings: 24 hours after infection, day, ip at 2 h, 4 h, 6 h, 8 h
Protocol: Pseudomonas aeruginosa PA14. 64 mice were intraperitoneally injected with 150 mg/kg cyclophosphamide on the first day and the fourth day to give immunosuppressed mice. […] [table] The mice were injected with 50 μL of bacterial solution (2×10^3 CFU) through the airway. 2 hours after the infection, 4 mice in the model group was sacrificed by removing cervical vertebra. Two hours after infection, the drugs were administered by groups, and the mice were administered intraperitoneally once at 2 hours, 4 hours, 6 hours, and 8 hours, a total of 4 times. Mice of each group were sacrificed by removing cervical vertebra 24 hours after infection, lung and kidney tissues were taken aseptically and put into sterilized tissue homogenate tubes, weighed, and an appropriate amount of normal saline (NS) was added, the mixture was homogenized by a homogenizer for 1 min, the lung tissues of the model group were diluted 10^4, 10^5, 10^6 times, the lung tissues of each administration group were diluted 10, 100 times, the kidney tissues of the model group were diluted 10^2, […], 10^4 times, and the lung tissues of each administration group were diluted 10 times, the obtained mixtures were coated on TSA plates using spiral coater, then incubated at 37° C. overnight, and the CFU was counted with a colony counter. Graphpad Prism mapping software was used to make scatter plots of lung tissue CFU. SPSS19.0 software was used to count CFU and average body weight, and analysis of variance was used to analyze differences between groups.

[19] = test system: Pseudomonas aeruginosa PA14; test: Lungs of immunosuppressed mice infected with Pseudomonas aeruginosa (2), lung bacterial load; assay type: in vivo; settings: 24 hours after infection, total dosage 60 mg/kg, day, ip at 2 h, 4 h, 6 h, 8 h
Protocol: Pseudomonas aeruginosa PA14. 60 mice were intraperitoneally injected with 150 mg/kg cyclophosphamide on day 1 and day 4 to give immunosuppressed mice. […] [table] The mice were injected with 50 μL of bacterial solution (2×10^3 CFU) through the airway. 2 hours after the infection, 4 mice in the model group was sacrificed by removing cervical vertebra. Two hours after infection, the drugs were administered by groups, and the mice were administered intraperitoneally once at 2 hours, 4 hours, 6 hours, and 8 hours, a total of 4 times. Mice of each group were sacrificed by removing cervical vertebra 24 hours after infection, lung and kidney tissues were taken aseptically and put into a sterilized tissue homogenate tube, weighed, and an appropriate amount of normal saline (NS) was added, the mixture was homogenized by a homogenizer for 1 min, the lung tissues of the model group were diluted 10^4, 10^5, 10^6 times, the lung tissues of each administration group were diluted 10, 100 times, the kidney tissues of the model group were diluted 10^2, 10^3, 10^4 times, and the lung tissues of each administration group were diluted 10 times, the obtained mixtures were coated on TSA plates using spiral coater, then incubated at 37° C. overnight, and the CFU was counted with a colony counter. Graphpad Prism mapping software was used to make scatter plots of lung tissue CFU. SPSS19.0 software was used to count CFU and average body weight, and analysis of variance was used to analyze differences between groups.

[20] = ATCCBAA1793, ATCC-BAA-1793, read-out: MIC
[21] = ATCCBAA1800, ATCC-BAA-1800, read-out: MIC

SMILES	MIC [1] [µg/mL]	MIC [2] [µg/mL]	MIC [3] [µg/mL]	MIC [4] [µg/mL]	MIC (E. coli MG1655Δtol C) [µg/mL]	MIC [5] [µg/mL]	MIC (P. aeruginosa PA 14) [µg/mL]	MIC (P. aeruginosa ATCC 35151) [µg/mL]	MIC (A. baumannii ATCC 17978) [µg/mL]	MIC (E. coli ATCC 25922) [µg/mL]	MIC [6] [µg/mL]	MIC [7] [µg/mL]	MIC [8] [µg/mL]	MIC [9] [µg/mL]	MIC [10] [µg/mL]	MIC [11] [µg/mL]	MIC [12] [µg/mL]	MIC [14] [µg/mL]	MIC [15] [µg/mL]	MIC [16] [µg/mL]	also measured
CC1(C)[C@H](NC(=O)/C(=N\OCCOc2ccc3c(c2)CCN(CCCN)C3)c2csc(N)n2)C(=O)N1OS(=O)(=O)O [Compound 6]	16 (≈ 26.2 µM)	4 (≈ 6.54 µM)	4 (≈ 6.54 µM)	0.25 (≈ 0.409 µM)	≤ 0.125	1 (≈ 1.63 µM)	16 (≈ 26.2 µM)	0.5 (≈ 0.817 µM)	4 (≈ 6.54 µM)	0.5 (≈ 0.817 µM)	2 (≈ 3.27 µM)	8 (≈ 13.1 µM)	16 (≈ 26.2 µM)	8 (≈ 13.1 µM)	8 (≈ 13.1 µM)	4 (≈ 6.54 µM)	8 (≈ 13.1 µM)	8 (≈ 13.1 µM)	8 (≈ 13.1 µM)	8 (≈ 13.1 µM)	MIC [13, 20]: 8 µg/mL (≈ 13.1 µM); MIC [17, 21]: 8 µg/mL (≈ 13.1 µM)
CC1(C)[C@H](NC(=O)/C(=N\OCCOc2ccc3c(c2)CCN(CCCNC(=N)N)C3)c2csc(N)n2)C(=O)N1OS(=O)(=O)O [Compound 7]	8 (≈ 12.2 µM)	4 (≈ 6.12 µM)	2 (≈ 3.06 µM)	0.25 (≈ 0.382 µM)	≤ 0.125	1 (≈ 1.53 µM)	16 (≈ 24.5 µM)	0.5 (≈ 0.765 µM)	1 (≈ 1.53 µM)	0.5 (≈ 0.765 µM)	2 (≈ 3.06 µM)	8 (≈ 12.2 µM)	8 (≈ 12.2 µM)	8 (≈ 12.2 µM)	8 (≈ 12.2 µM)	2 (≈ 3.06 µM)	8 (≈ 12.2 µM)	4 (≈ 6.12 µM)	4 (≈ 6.12 µM)	8 (≈ 12.2 µM)	MIC [13, 20]: 4 µg/mL (≈ 6.12 µM); MIC [17, 21]: 4 µg/mL (≈ 6.12 µM)
CC1(C)[C@H](NC(=O)/C(=N\O[C@@H](COc2ccc(C(=N)N[C@@H]3CCCNC3)cc2)C(=O)O)c2csc(N)n2)C(=O)N1OS(=O)(=O)O [I-g, reference compound]	–	–	–	–	–	–	–	–	–	–	–	–	–	–	–	–	–	–	–	–	LOG10-of bacterial load ([18]; total dosage 120 mg/kg): 1.58 ± 2.45; LOG10-of bacterial load ([18]; total dosage 200 mg/kg): 0**; LOG10-of bacterial load [19]: 1.65 ± 1.39
C[C@@H](O)[C@H]1C(=O)N2C(C(=O)O)=C(SCCN=CN)C[C@H]12 [Imipenem, reference compound]	–	–	–	–	–	–	–	–	–	–	0.25 (≈ 0.835 µM)	0.5 (≈ 1.67 µM)	32 (≈ 107 µM)	16 (≈ 53.4 µM)	64 (≈ 214 µM)	32 (≈ 107 µM)	64 (≈ 214 µM)	32 (≈ 107 µM)	1 (≈ 3.34 µM)	64 (≈ 214 µM)	MIC ([13]; ATCCBAA1793): 128 µg/mL (≈ 428 µM); MIC ([17]; ATCCBAA1800): 128 µg/mL (≈ 428 µM)
